In patent publication US11998600B2, “Enhancing the therapeutic activity of an immune checkpoint inhibitor” (MaineHealth, priority 2015, dated 2024):

What was measured:
P38MAPK [1] = assay: Phosphorylated P38MAPK in CAM tissue lysates, Western blot; format: in vivo, chick; details: Image-J quantification, FIG. 6B
Procedure: The chick chorioallantoic membrane (CAM) assays were carried out with some modifications (19). For all experiments CAMs of 10-day-old chick embryos obtained from Charles River (North Franklin, CT) were separated from the shell membrane. Filter discs either non-treated (inflammation assays) pretreated (angiogenesis assays) with cortisone acetate (3.0 mg/ml) containing RPMI only or FGF-2 (40 ng). CAMs were either non-treated or treated topically with Mab XL313, XL166 or a non-specific control antibody (10 μg/embryo every 24 h for three consecutive treatments). […] At the end of the incubation period the embryos were sacrificed and the CAM tissues were analyzed. Angiogenesis was quantified by counting the number of angiogenic branching blood vessels within the area of the filter disc. The angiogenic index was determined by subtracting the mean number of blood vessel branch points from untreated CAMs from each experimental condition. Eight to twelve embryos were used per condition and experiments were repeated at least three times.
Whole cell and CAM tissue lysates were collected in RIPA buffer supplemented with 1× protease inhibitor and 1× phosphatase inhibitor and were run on polyacrylamide gels using denaturing conditions. […] Western blot bands were quantified using Image J software based on pixel intensity.

P38MAPK [2] = assay: P38MAPK phosphorylation in HUVECs attached to collagen peptides, Western blot; format: cell-based, human; details: cells attached to immobilized peptide; FIG. 6D
Procedure: Endothelial cells (HUVECs or HRMVECs) were incubated in serum free media with 1 mM MgCl2, 0.2 mM MnCl2 in the presence of a Src inhibitor, PP2, (10 μM) a P38MAPK inhibitor, SB202190 (10 μM) or vehicle only (DMSO) for 10 min at 37° C. Treated cells were then seeded on to immobilized P-1 and P-2 and lysates were collected at 15 min.
Whole cell and CAM tissue lysates were collected in RIPA buffer supplemented with 1× protease inhibitor and 1× phosphatase inhibitor and were run on polyacrylamide gels using denaturing conditions. Prior to loading the gels, 6× sample buffer was added to each of the lysates (final concentration 1×) and boiled for five minutes. Twenty to 50 μg of total protein were loaded into each lane. For detection of proteins larger than 50 kD, 10% gels were used; for proteins smaller than 50 kD 15% gels were used. Gels were run at 60 volts (v) until the dye front passed through the stacking gel, and then the voltage was increased to 100V for the remainder of the separation. Precision Plus protein standards (Bio-Rad) were used to visualize migration. Protein was transferred to nitrocellulose membranes using a wet tank system and blocked for 1 h using 10% non-fat dried milk in tris-buffered saline with 0.01% Tween-20 (TBS-T). […] Western blot bands were quantified using Image J software based on pixel intensity. […]

[3] = test system: endothelial cells transduced with non-specific shRNA; assay: Cell proliferation assay, endothelial cells transduced with non-specific shRNA; format: cell-based, human; details: soluble peptide; FIG. 8G
Procedure: HUVECs (WT, shYAP1 or control transfected) or HRMVECs were plated at 2,000 cells per well with complete EGM-2 media containing 2.0% FBS in the absence or presence of P-1, P-2 or P-C (100 ng/ml) and allowed to grow for 24 hours. Cell growth was monitored using a BrdU or MMT assay kits according to manufacturer's instructions. All assays were completed at least three times in triplicate wells.
Raw cells were transfected with 1 μg of HuSH shRNA plasmids for collagen type I, alpha 2 using Amaxa cell line nucleofector kit V (program #T024). Constructs expressing 21-nucleotide short hairpin RNAs (shRNA) targeting human YAP (shYAP) or non-targeting control (shNT, Sigma-Aldrich, SHC002) were used. Humantargeting shYAP1 lentiviral shRNA was obtained from the Thermo Scientific RNAi consortium (TRCN0000107625). Constructs were packaged into lentivirus, pseudotyped with the vesicular stomatitis virus glycoprotein. Transduction was performed by incubating cells with lentivirus, and stably transduced cells were subsequently used for studies. All cell lines were verified by morphology and mouse and human YAP-specific PCR. […] Endothelial cells were certified mycoplasma-negative by PCR (Lonza), and primary cell cultures were used within the indicated passage numbers. Cells were transduced and selected using puromycin.
Endothelial cells with YAP specific or non-specific shRNAs were transduced.

QGPRGDKGE [Mab P-2]
increase in phosphorylation of P38MAPK as compared to controls (P38MAPK [1]): 4 fold
phosphorylation of P38MAPK in HUVECs, P-2 as compared to P-1 (P38MAPK [2]): enhanced phosphorylation of P38MAPK
endothelial cell growth in control transduced cells [3]: enhanced growth
